Test results reported in patent publication US20110136762A1, “FUNGICIDAL PYRIDAZINES” (E.I. Du Pont de Nemours and Company, priority 2008, published 2011).
Marks after values point to notes of the source that are not given here.

Key:
Type in all cases: in vivo
[1] = tested on: Botrytis cinerea; test: Test F: tomato Botrytis, preventive spray on tomato seedlings, visual disease rating; conditions: 100 = 100% disease control, 0 = no disease control relative to controls; for pest or weed control at 200 ppm: Botrytis cinerea
From the text: General protocol for preparing test suspensions for Tests A-F: […] The resulting test suspensions were then used in Tests A-F. The test suspensions were sprayed to the point of run-off on the test plants. All results are for 200 ppm (equivalent to a rate of 500 g/ha) except where followed by “*” which indicates 40 ppm. The test suspension was sprayed to the point of run-off on tomato seedlings. The following day the seedlings were inoculated with a spore suspension of Botrytis cinerea (the causal agent of tomato Botrytis) and incubated in saturated atmosphere at 20° C. for 48 h, and then moved to a growth chamber at 24° C. for 3 days, after which time visual disease ratings were made. […] A dash (-) indicates no test results. All results are for 200 ppm except where followed by “*”, which indicates 40 ppm.

[2] = tested on: Puccinia recondita f. sp. tritici; test: Test B: wheat leaf rust, preventive spray on wheat seedlings, visual disease rating; conditions: 100 = 100% disease control, 0 = no disease control relative to controls; for pest or weed control at 200 ppm: 192 h
From the text: General protocol for preparing test suspensions for Tests A-F: […] The resulting test suspensions were then used in Tests A-F. The test suspensions were sprayed to the point of run-off on the test plants. All results are for 200 ppm (equivalent to a rate of 500 g/ha) except where followed by “*” which indicates 40 ppm. The test suspension was sprayed to the point of run-off on wheat seedlings. The following day the seedlings were inoculated with a spore suspension of Puccinia recondita f. sp. tritici (the causal agent of wheat leaf rust) and incubated in a saturated atmosphere at 20° C. for 24 h, and then moved to a growth chamber at 20° C. for 7 days, after which time visual disease ratings were made. […] A dash (-) indicates no test results. All results are for 200 ppm except where followed by “*”, which indicates 40 ppm.

[3] = tested on: Septoria nodorum; test: Test D: wheat glume blotch, preventive spray on wheat seedlings, visual disease rating; conditions: 100 = 100% disease control, 0 = no disease control relative to controls; for pest or weed control at 200 ppm: Parastagonospora nodorum
From the text: General protocol for preparing test suspensions for Tests A-F: […] The resulting test suspensions were then used in Tests A-F. The test suspensions were sprayed to the point of run-off on the test plants. All results are for 200 ppm (equivalent to a rate of 500 g/ha) except where followed by “*” which indicates 40 ppm. The test suspension was sprayed to the point of run-off on wheat seedlings. The following day the seedlings were inoculated with a spore suspension of Septoria nodorum (the causal agent of wheat glume blotch) and incubated in a saturated atmosphere at 20° C. for 48 h, and then moved to a growth chamber at 20° C. for 7 days, after which time visual disease ratings were made. […] A dash (-) indicates no test results. All results are for 200 ppm except where followed by “*”, which indicates 40 ppm.

[4] = tested on: Alternaria solani; test: Test E: tomato early blight, preventive spray on tomato seedlings, visual disease rating; conditions: 100 = 100% disease control, 0 = no disease control relative to controls; for pest or weed control at 200 ppm: Alternaria solani
From the text: General protocol for preparing test suspensions for Tests A-F: […] The resulting test suspensions were then used in Tests A-F. The test suspensions were sprayed to the point of run-off on the test plants. All results are for 200 ppm (equivalent to a rate of 500 g/ha) except where followed by “*” which indicates 40 ppm. The test suspension was sprayed to the point of run-off on tomato seedlings. […] A dash (-) indicates no test results. All results are for 200 ppm except where followed by “*”, which indicates 40 ppm.

[5] = tested on: Erysiphe graminis; test: Test A: wheat powdery mildew, preventive spray on wheat seedlings, visual disease rating; conditions: 100 = 100% disease control, 0 = no disease control relative to controls; for pest or weed control at 200 ppm: Blumeria graminis, 192 h
From the text: General protocol for preparing test suspensions for Tests A-F: […] The resulting test suspensions were then used in Tests A-F. The test suspensions were sprayed to the point of run-off on the test plants. All results are for 200 ppm (equivalent to a rate of 500 g/ha) except where followed by “*” which indicates 40 ppm. The test suspension was sprayed to the point of run-off on wheat seedlings. The following day the seedlings were inoculated with a spore dust of Erysiphe graminis, (the causal agent of wheat powdery mildew) and incubated in a growth chamber at 20° C. for 8 days, after which time visual disease ratings were made. […] A dash (-) indicates no test results. All results are for 200 ppm except where followed by “*”, which indicates 40 ppm.

[6] = tested on: Septoria tritici; test: Test C: wheat leaf blotch, preventive spray on wheat seedlings, visual disease rating; conditions: 100 = 100% disease control, 0 = no disease control relative to controls; for pest or weed control at 200 ppm: Zymoseptoria tritici, 504 h
From the text: General protocol for preparing test suspensions for Tests A-F: […] The resulting test suspensions were then used in Tests A-F. The test suspensions were sprayed to the point of run-off on the test plants. All results are for 200 ppm (equivalent to a rate of 500 g/ha) except where followed by “*” which indicates 40 ppm. The test suspension was sprayed to the point of run-off on wheat seedlings. The following day the seedlings were inoculated with a spore suspension of Septoria tritici (the causal agent of wheat leaf blotch) and incubated in saturated atmosphere at 20° C. for 48 h, and moved to a growth chamber at 20° C. for 19 additional days, after which time visual disease ratings were made. […] A dash (-) indicates no test results. All results are for 200 ppm except where followed by “*”, which indicates 40 ppm.

| SMILES | Test F rating (disease control, tomato Botrytis) ([1]; 200 ppm) | Test B rating (disease control, wheat leaf rust) ([2]; 200 ppm) | Test D rating (disease control, wheat glume blotch) ([3]; 200 ppm) | Test E rating (disease control, tomato early blight) ([4]; 200 ppm) | Test A rating (disease control, wheat powdery mildew) ([5]; 200 ppm) | Test C rating (disease control, wheat leaf blotch) ([6]; 200 ppm) | pest or weed control at 200 ppm ([1]; 200 ppm) | pest or weed control at 200 ppm ([2]; 200 ppm) | pest or weed control at 200 ppm ([3]; 200 ppm) | pest or weed control at 200 ppm ([4]; 200 ppm) | pest or weed control at 200 ppm ([5]; 200 ppm) | pest or weed control at 200 ppm ([6]; 200 ppm) | further results |
| --- | --- | --- | --- | --- | --- | --- | --- | --- | --- | --- | --- | --- | --- |
| COc1cc(OC)cc(-c2c(-c3ccc(F)cc3)nnc(C)c2-c2ccccc2)c1 [Compound 11] | 0% | 68% | 0% | 0% | 93% | 70% | – | – | – | – | – | – | – |
| COc1cc(OC)cc(-c2c(-c3ccccc3)n[n+]([O-])c(C)c2-c2ccc(F)cc2)c1 [Compound 12, 4-(3,5-dimethoxyphenyl)-5-(4-fluorophenyl)-6-methyl-3-phenylpyridazine 1-oxide] | – | – | – | – | – | – | 100% | 100% | 0% | 94% | 62% | 99% | – |
| COc1cc(OC)cc(-c2c(-c3ccccn3)nnc(C)c2-c2ccccc2)c1 [Compound 13, 4-(3,5-dimethoxyphenyl)-6-methyl-5-phenyl-3-(2-pyridinyl)pyridazine] | – | – | – | – | – | – | 0% | 41% | 0% | 0% | 0% | 0% | – |
| COc1cc(OC)cc(-c2c(-c3ccccc3)nnc(CCl)c2-c2ccc(F)cc2)c1 [Compound 14, 3-(chloromethyl)-5-(3,5-dimethoxyphenyl)-4-(4-fluorophenyl)-6-phenylpyridazine] | – | – | – | – | – | – | 99% | 91% | 0% | 0% | 11% | 77% | – |
| COc1cc(OC)cc(-c2c(-c3ccccc3F)nnc(C)c2-c2ccc(F)cc2F)c1 [Compound 15, 4-(2,4-difluorophenyl)-5-(3,5-dimethoxyphenyl)-6-(2-fluorophenyl)-3-methylpyridazine] | – | – | – | – | – | – | 98% | 100% | 98% | 100% | 100% | 99% | – |
| COc1cc(OC)cc(-c2c(-c3ccc(F)cc3F)cnnc2-c2ccccc2F)c1 [Compound 16] | 99% | 96% | 0% | 0% | 0% | 70% | – | – | – | – | – | – | – |
| COc1cc(OC)cc(-c2c(-c3ccccc3F)nnc(Cl)c2-c2ccc(F)cc2F)c1 [Compound 18, 3-chloro-4-(2,4-difluorophenyl)-5-(3,5-dimethoxyphenyl)-6-(2-fluorophenyl)pyridazine] | – | – | – | – | – | – | 95% | 100% | 100% | 100% | 95% | 98% | – |
| C=C(C)c1nnc(C)c(-c2ccc(OC)cc2)c1-c1cc(OC)cc(OC)c1 [Compound 19] | 98% | 98% | 0% | 100% | 61% | 98% | – | – | – | – | – | – | – |
| C=C(C)c1nnc(C)c(-c2ccc(F)cc2F)c1-c1cc(OC)cc(OC)c1 [Compound 20] | 99% | 100% | 0% | 100% | 96% | 96% | – | – | – | – | – | – | – |
| C=C(C)c1nnc(C)c(-c2c(F)cccc2F)c1-c1cc(OC)cc(OC)c1 [Compound 21] | – | – | – | – | – | – | – | – | – | – | – | – | Test F rating (disease control, tomato Botrytis) ([1]; 40 ppm (marked *)): 98* %; Test B rating (disease control, wheat leaf rust) ([2]; 40 ppm (marked *)): 99* %; Test D rating (disease control, wheat glume blotch) ([3]; 40 ppm (marked *)): 0* %; Test E rating (disease control, tomato early blight) ([4]; 40 ppm (marked *)): 98* %; Test A rating (disease control, wheat powdery mildew) ([5]; 40 ppm (marked *)): 94* %; Test C rating (disease control, wheat leaf blotch) ([6]; 40 ppm (marked *)): 98* % |
